Measurements taken from patent publication US20250223276A1, “Substituted Pyrrolidinyl And Piperidinyl Compounds And Related Methods Of Treatment” (Alkermes, Inc., priority 2022, published 2025).

molecular target: T1, human orexin-2 receptor (OX2R) (Homo sapiens, UniProt O43614); assay: Human OX2R IP1 assay; type: cell-based; conditions: T-Rex CHO cells stably overexpressing human OX2R; IP1 (inositol monophosphate) accumulation, HTRF; 1 hr at 37 degrees C
T1 construct: expressed in transfected cells
T1 sequence (O43614 1-444): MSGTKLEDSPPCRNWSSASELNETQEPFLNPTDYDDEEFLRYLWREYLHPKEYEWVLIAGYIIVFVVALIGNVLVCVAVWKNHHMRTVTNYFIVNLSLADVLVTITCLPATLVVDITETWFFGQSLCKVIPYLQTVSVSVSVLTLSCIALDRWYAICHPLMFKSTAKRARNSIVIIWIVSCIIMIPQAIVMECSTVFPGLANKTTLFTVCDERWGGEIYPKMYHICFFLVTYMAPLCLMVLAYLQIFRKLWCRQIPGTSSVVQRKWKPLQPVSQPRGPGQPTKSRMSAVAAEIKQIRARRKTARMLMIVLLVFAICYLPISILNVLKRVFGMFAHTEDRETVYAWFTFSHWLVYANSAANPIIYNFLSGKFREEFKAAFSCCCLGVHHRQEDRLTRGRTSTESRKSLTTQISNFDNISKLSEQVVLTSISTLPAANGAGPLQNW
Experimental: T-Rex CHO cells stably overexpressing the human orexin-2 receptor (OX2R) are induced overnight with 1 μg/mL of doxycycline in a T225 flask. 24 hours post induction, cells are lifted with accutase and plated into a 384-well proxy plate at 30,000 cells/well. Cells are then treated with different test compounds in 1× stimulation buffer containing 10 mM Hepes, 1 mM CaCl2), 0.5 mM MgCl2, 4.2 mM KCl, 146 mM NaCl, 5.5 mM glucose, and 50 mM LiCl, pH 7.4, for 1 hr at 37 degrees C. Following incubation, the reaction is terminated by the addition of detection mix, which is composed of IP1-d2 and anti-IP1-cryptate diluted in lysis buffer as well as 1× stimulation buffer. The plates are allowed to incubate for 1 hour at room temperature and are then read in the En Vision® multimode plate reader, measuring inositol phosphate levels.
Cisbio IP1 is a cell-based functional assay quantifying the accumulation of inositol monophosphate (IP), a metabolite released as a result of orexin 2 receptor activation through the phospholipase C-Gq signaling pathway. This is a competitive immunoassay in which the IP1 produced by the cells upon receptor activation competes with the IP1 analog coupled to the d2 fluorophore (acceptor) for binding to an anti-IP1 monoclonal antibody labeled with Eu cryptate (donor). The measured HTRF-FRET based signal is inversely proportional to the IP1 concentration produced.
The EC50 values reported in Table 2 were obtained according to the human OX2R IP1 assay described above. Data are the mean EC50 values±S.E.M.

| EC50 [µM] | SMILES |
| --- | --- |
| > 1 | CN(CCF)S(=O)(=O)N[C@H]1CCN(c2cccnn2)C[C@H]1CO[C@H]1CC[C@@H](c2cccc(F)c2)CC1 [Compound 64] |
| < 0.1 | CN(C)S(=O)(=O)N[C@H]1CCN(C(=O)C2(F)CC2)C[C@H]1CO[C@H]1CC[C@@H](c2cccc(F)c2)CC1 [Compound 47] |
| > 1 | O=S(=O)(N[C@H]1CCN(c2cccnn2)C[C@H]1CO[C@H]1CC[C@@H](c2cccc(F)c2)CC1)N1CCC(F)(F)C1 [Compound 29] |
| < 0.1 | CN(C)S(=O)(=O)N[C@H]1CCN(C(=O)[C@H]2C[C@H](F)C2)C[C@H]1CO[C@H]1CC[C@@H](c2cccc(F)c2)CC1 [Compound 54] |
| 0.1 to 1 | CN(C)S(=O)(=O)N[C@H]1CCN(C(=O)c2cncn2C)C[C@H]1CO[C@H]1CC[C@@H](c2cccc(F)c2)CC1 [Compound 46] |
| > 1 | CN1CC(OC(=O)N2CC[C@H](NS(=O)(=O)N(C)C)[C@H](CO[C@H]3CC[C@@H](c4cccc(F)c4)CC3)C2)C1 [Compound 59] |
| > 1 | CN(C)C1CN(S(=O)(=O)N[C@H]2CCN(c3cccnn3)C[C@H]2CO[C@H]2CC[C@@H](c3cccc(F)c3)CC2)C1 [Compound 30] |
| < 0.1 | CN(C)S(=O)(=O)N[C@H]1CCN(C(=O)C2(F)CCC2)C[C@H]1CO[C@H]1CC[C@@H](c2cccc(F)c2)CC1 [Compound 4] |
| < 0.1 | CN(C)S(=O)(=O)N[C@H]1CCN(C(=O)OCC(F)F)C[C@H]1CO[C@H]1CC[C@@H](c2cccc(F)c2)CC1 [Compound 48] |
| 0.1 to 1 | CN(C1CC1)S(=O)(=O)N[C@H]1CCN(c2cccnn2)C[C@H]1CO[C@H]1CC[C@@H](c2cccc(F)c2)CC1 [Compound 9] |
